These results are taken from patent US11135228B2, “Cysteinyl-proresolving mediators that promote resolution of infection and organ protection” (THE BRIGHAM AND WOMEN'S HOSPITAL, priority 2014, dated 2021).

One assay concerns Djndk, Djmpka, DjAdb-Ba. Briefly: Gene expression in regenerating planaria blastemas (real-time PCR). Type of assay: in vivo, Dugesia japonica. Particulars: 100 nM, 2 days post injury. The procedure:
Whole mount in situ hybridization, real-time PCR and dsRNA synthesis: Regenerating blastemas were obtained from planaria after surgical injury and placed in Trizol (Ambion). RNA was isolated following manufacturer's instructions and cDNA was synthesized essentially as in (16) using random hexamers, Oligo(dt)20 and Superscript III (Invitrogen), Relative quantitative analysis for each gene product was carried out using an ABI 7900ht fast real-time PCR machine (Applied Biosystems). DjGapdh—Forward: […] (SEQ ID NO. 1); Reverse: […] (SEQ ID NO. 2). Djsfpr-A—Forward: […] (SEQ ID NO. 3); Reverse: […] (SEQ ID NO. 4). Djndk—Forward: […] (SEQ ID NO. 5); Reverse: […] (SEQ ID NO. 6). DjmpkA—Forward: […] (SEQ ID NO. 7); Reverse: […] (SEQ ID NO. 8). DfAdb-Ba—Forward: […] (SEQ ID NO. 9); Reverse: […] (SEQ ID NO. 10). DjGst—Forward: […] (SEQ ID NO. 11); Reverse: […] (SEQ ID NO. 12). The constitutively transcribed housekeeping gene, GAPDH, was employed to normalized target gene expression levels as in (16).
Planaria regeneration: Planaria (Dugesia japonica; Dj) were kept in water (Poland Spring) at 18° C. […] Tissue regeneration was assessed as in (12). […] The extent of tissue regeneration during a 6-day period for D. japonica was determined using captured images of the regenerating blastemas at regular intervals (24 h). These images were analyzed using ImageJ software. […]
For orientation: Quantitative PCR measures a nucleic acid by following its amplification.

A further assay has as its system E. coli. Briefly: Murine E. coli peritonitis: leukocyte counts, resolution indices, in vivo phagocytosis. Particulars: for leukocyte phagocytosis of E. coli in vivo: co-administration of SCI and SCII 50 ng each, i.p.; for resolution of infections in mice: co-administration of equal amounts of SCI and SCII. More on the design: species or system mouse. The protocol: Murine Peritonitis: Mouse experiments were conducted in accordance with guidelines from Harvard Medical Area Standing Committee on Animals (protocol no. 02570). Mice were inoculated with E. coli (serotype 06:K2:H1) as in (11) and peritoneal exudates were collected by lavaging the peritoneal cavity with 4 ml of PBS (without calcium and magnesium) at the indicated intervals. Leukocytes were enumerated by light microscopy using nuclear morphology staining with Turks solution and flow cytometry probing for CD11b-PerCP/Cy5.5 (eBioscience, clone: M1/70), F4/80-PE (eBioscience, BM8) and Ly6G-FITC (eBioscience, clone: 1A8) as in (11). For product isolation, 24 h peritoneal exudates were collected and 2 volumes of ice-cold methanol were added. Isolates were obtained as detailed in the lipid mediator metabotolipidomics section.
In select experiments 12 h after E. coli inoculation, mice were administered either 100 ng of SCI and SCII (50 ng/each per mouse) or vehicle (saline containing 0.1% ethanol (EtOH)) via i.p. injection. Peritoneal exudates were then collected and leukocyte counts determined as above. Assessment of leukocyte phagocytosis of E. coli in inflammatory exudates was conducted as in (11). Briefly cells were incubated with anti-CD11b-Per(T/Cy5.5 conjugated antibody; subsequently the cells were permeabilized using BD Cytofix/Cytoperm™ Fixation/Permeabilization Kit following manufacturer's instructions; cells were then incubated with a FITC conjugated anti-E. coli antibody (GTX40856; GeneTex) and phagocytosis assessed as mean fluorescence in the CD11b- positive cell population.
Resolution indices were calculated as in (11) where Ψmax=the maximal PMN numbers in the exudates; Tmax=the time point when PMN numbers reach maximum; R50=50% of maximal PMN numbers; T50=the time point when PMN numbers reduce to 50% of maximum; Ri (resolution interval)=T50−Tmax, the time period when 50% PMN are lost from the exudates.

As to “13-glutathionyl, 14-hydroxy-docosahexaenoic acid [SCI]”, the “genes involved in head regeneration” value in the assay with Djndk, Djmpka, DjAdb-Ba is on record as “upregulated”. For the same compound, in the assay with E. coli, the “leukocyte phagocytosis of E. coli in vivo” value was “Stimulates mouse” and the “resolution of infections in mice” value is reported as “Promotes resolution of”.
Taken in the same sequence, the figures for `CCC=CCC=CCC(O)C(C=CC=CC=CCC=CCCC(=O)O)SCC(N)C(=O)NCC(=O)O` (stereo not drawn) [SCII, 13-cysteinylglycinyl, 14-hydroxy-docosahexaenoic acid] were “upregulated”, “Stimulates mouse” and “Promotes resolution of”.
